This assay relates to MV-4-11 cells. Nature of the assay: Gene expression microarray analysis (Affymetrix PrimeView) and GSEA. The format is cell-based, human. Set-up: RFU PODN (11730768_x_at) / Fold change /veh PODN (11730768_x_at) / RFU LINC00158 (11744669_a_at) / Fold change /veh LINC00158 (11744669_a_at) / RFU DUSP10 (11751237_a_at) / Fold change /veh DUSP10 (11751237_a_at) / RFU ID3 (11757404_x_at) / Fold change /veh ID3 (11757404_x_at) / RFU PLEKHG5 (11737974_s_at) / Fold change /veh PLEKHG5 (11737974_s_at) / RFU LRRC4B (11730491_at) / Fold change /veh LRRC4B (11730491_at) / RFU GIMAP4 (11747438_a_at) / Fold change /veh GIMAP4 (11747438_a_at) / RFU KRT8 (11758183_x_at) / Fold change /veh KRT8 (11758183_x_at) / RFU CNN1 (11734310_a_at) / Fold change /veh CNN1 (11734310_a_at) / RFU VPS37D (11726825_at) / Fold change /veh VPS37D (11726825_at) / RFU C10orf10 (11716522_x_at) / Fold change /veh C10orf10 (11716522_x_at) / RFU KIR2DL2 /// KIR2DL4 /// KIR2DL5A /// KIR2DL5B /// KIR2DS1 /// KIR2DS2 /// KIR2DS3 /// KIR2DS4 /// KIR3DL3 /// KIR3DL3 /// KIR3DS1 (11738374_at) / Fold change /veh KIR2DL2 /// KIR2DL4 /// KIR2DL5A /// KIR2DL5B /// KIR2DS1 /// KIR2DS2 /// KIR2DS3 /// KIR2DS4 /// KIR3DL3 /// KIR3DL3 /// KIR3DS1 (11738374_at) / RFU C1QL1 (11718748_at) / Fold change /veh C1QL1 (11718748_at) / RFU TMPRSS4 (11747572_a_at) / Fold change /veh TMPRSS4 (11747572_a_at) / RFU HAMP (11756126_x_at) / Fold change /veh HAMP (11756126_x_at) / RFU RNFT2 (11725882_a_at) / Fold change /veh RNFT2 (11725882_a_at) / RFU NR4A2 (11747474_a_at) / Fold change /veh NR4A2 (11747474_a_at) / RFU ABCC12 (11746883_a_at) / Fold change /veh ABCC12 (11746883_a_at) / RFU TMEM136 (11760407_x_at) / Fold change /veh TMEM136 (11760407_x_at) / RFU CLDN22 /// WWC2 (11732394_at) / Fold change /veh CLDN22 /// WWC2 (11732394_at) / RFU HLA-DPB1 (11760878_x_at) / Fold change /veh HLA-DPB1 (11760878_x_at) / RFU SPINT1 (11716480_a_at) / Fold change /veh SPINT1 (11716480_a_at) / RFU GAP43 (11754022_s_at) / Fold change /veh GAP43 (11754022_s_at) / RFU A4GNT (11735810_at) / Fold change /veh A4GNT (11735810_at) / RFU PRB3 (11715151_x_at) / Fold change /veh PRB3 (11715151_x_at) / RFU TUBB4B (11761932_at) / Fold change /veh TUBB4B (11761932_at) / RFU CAPN14 (11732068_a_at) / Fold change /veh CAPN14 (11732068_a_at) / RFU TMCC2 (11721928_a_at) / Fold change /veh TMCC2 (11721928_a_at) / RFU IRGQ (11745062_a_at) / Fold change /veh IRGQ (11745062_a_at) / RFU FAM174B (11720279_a_at) / Fold change /veh FAM174B (11720279_a_at) / RFU TMPRSS4 (11748680_a_at) / Fold change /veh TMPRSS4 (11748680_a_at) / RFU FAM212B (11763350_a_at) / Fold change /veh FAM212B (11763350_a_at) / RFU PLEKHG5 (11743358_a_at) / Fold change /veh PLEKHG5 (11743358_a_at) / RFU ZSCAN30 (11745921_a_at) / Fold change /veh ZSCAN30 (11745921_a_at) / RFU CMKLR1 (11741424_a_at) / Fold change /veh CMKLR1 (11741424_a_at) / RFU LOC101060620 /// MAPK8IP1 (11723275_at) / Fold change /veh LOC101060620 /// MAPK8IP1 (11723275_at) / RFU SPTSSB (11747773_x_at) / Fold change /veh SPTSSB (11747773_x_at) / RFU PRSS12 (11739890_at) / Fold change /veh PRSS12 (11739890_at) / RFU BIN1 (11741810_x_at) / Fold change /veh BIN1 (11741810_x_at) / RFU WNT11 (11732464_a_at) / Fold change /veh WNT11 (11732464_a_at) / RFU C10orf10 (11716521_a_at) / Fold change /veh C10orf10 (11716521_a_at) / RFU C5orf56 (11738089_at) / Fold change /veh C5orf56 (11738089_at) / RFU CYB561 (11721691_x_at) / Fold change /veh CYB561 (11721691_x_at) / RFU ANKRD19P (11752326_a_at) / Fold change /veh ANKRD19P (11752326_a_at) / RFU OR2T12 /// OR2T33 /// OR2T8 (11738714_s_at) / Fold change /veh OR2T12 /// OR2T33 /// OR2T8 (11738714_s_at) / RFU VCAN (11748164_a_at) / Fold change /veh VCAN (11748164_a_at) / RFU JSRP1 (11732532_at) / Fold change /veh JSRP1 (11732532_at) / RFU KRTAP10-11 (11738290_x_at) / Fold change /veh KRTAP10-11 (11738290_x_at) / RFU MYO3A (11730013_a_at) / Fold change /veh MYO3A (11730013_a_at) / RFU EBF3 (11725865_a_at) / Fold change /veh EBF3 (11725865_a_at) / RFU CAMK2N1 (11719241_x_at) / Fold change /veh CAMK2N1 (11719241_x_at) / RFU C5orf56 (11738088_a_at) / Fold change /veh C5orf56 (11738088_a_at) / RFU OLFML3 (11715873_a_at) / Fold change /veh OLFML3 (11715873_a_at) / RFU LOC100653217 /// NTM (11731650_a_at) / Fold change /veh LOC100653217 /// NTM (11731650_a_at) / RFU MAPK11 (11762145_a_at) / Fold change /veh MAPK11 (11762145_a_at) / RFU FIZ1 (11724087_x_at) / Fold change /veh FIZ1 (11724087_x_at) / RFU OASL (11726364_x_at) / Fold change /veh OASL (11726364_x_at) / RFU SOX15 (11748057_x_at) / Fold change /veh SOX15 (11748057_x_at) / RFU CD79A (11719716_a_at) / Fold change /veh CD79A (11719716_a_at) / RFU HIST1H1D (11736915_at) / Fold change /veh HIST1H1D (11736915_at) / RFU CASKIN2 (11723855_a_at) / Fold change /veh CASKIN2 (11723855_a_at) / RFU LOC730098 (11760151_x_at) / Fold change /veh LOC730098 (11760151_x_at) / RFU OR4N2 (11742367_at) / Fold change /veh OR4N2 (11742367_at) / RFU PRRT2 (11749266_a_at) / Fold change /veh PRRT2 (11749266_a_at) / RFU SNX32 (11753110_a_at) / Fold change /veh SNX32 (11753110_a_at) / RFU CDHR5 (11726645_a_at) / Fold change /veh CDHR5 (11726645_a_at) / RFU RCAN1 (11760418_a_at) / Fold change /veh RCAN1 (11760418_a_at) / RFU FAM167A (11723789_a_at) / Fold change /veh FAM167A (11723789_a_at) / RFU FAM26E (11764081_at) / Fold change /veh FAM26E (11764081_at) / RFU ISYNA1 (11749810_s_at) / Fold change /veh ISYNA1 (11749810_s_at) / RFU ACY1 (11761880_at) / Fold change /veh ACY1 (11761880_at) / RFU 11764098_at / Fold change /veh 11764098_at / RFU SAMD14 (11745864_x_at) / Fold change /veh SAMD14 (11745864_x_at) / RFU NPB (11741838_a_at) / Fold change /veh NPB (11741838_a_at) / RFU TMPRSS6 (11731388_a_at) / Fold change /veh TMPRSS6 (11731388_a_at) / RFU KRTAP10-2 (11738614_at) / Fold change /veh KRTAP10-2 (11738614_at) / RFU ARHGAP8 /// PRR5-ARHGAP8 (11727945_x_at) / Fold change /veh ARHGAP8 /// PRR5-ARHGAP8 (11727945_x_at) / RFU KRTAP5-7 /// NADSYN1 (11734609_at) / Fold change /veh KRTAP5-7 /// NADSYN1 (11734609_at) / RFU RASL12 (11751679_a_at) / Fold change /veh RASL12 (11751679_a_at) / RFU CDKN2B (11736163_a_at) / Fold change /veh CDKN2B (11736163_a_at) / RFU PRF1 (11729649_at) / Fold change /veh PRF1 (11729649_at) / RFU, ZNF638 /// ZNF638-IT1 / Fold change vs veh, ZNF638 /// ZNF638-IT1 / RFU, PANK3 / Fold change vs veh, PANK3 / RFU, SH3YL1 / Fold change vs veh, SH3YL1 / RFU, ZEB2 / Fold change vs veh, ZEB2 / RFU, NRIP1 / Fold change vs veh, NRIP1 / RFU, PTTG1IP / Fold change vs veh, PTTG1IP / RFU, CAPN2 / Fold change vs veh, CAPN2 / RFU, MED14 / Fold change vs veh, MED14 / RFU, SNORA58 / Fold change vs veh, SNORA58 / RFU, C1orf63 / Fold change vs veh, C1orf63 / RFU, LRRFIP1 / Fold change vs veh, LRRFIP1 / RFU, NDUFAF7 / Fold change vs veh, NDUFAF7 / RFU, SLC12A2 / Fold change vs veh, SLC12A2 / RFU, IBTK / Fold change vs veh, IBTK / RFU, ESF1 / Fold change vs veh, ESF1 / Fold change vs veh, TMEM50B / RFU, TAOK1 / Fold change vs veh, TAOK1 / RFU, ACBD3 / Fold change vs veh, ACBD3 / RFU, TMA16 / Fold change vs veh, TMA16 / RFU, RWDD3 / Fold change vs veh, RWDD3 / RFU, BCAT1 / Fold change vs veh, BCAT1 / RFU, EDEM3 / Fold change vs veh, EDEM3 / RFU, TMEM33 / Fold change vs veh, TMEM33 / RFU, WDR75 / Fold change vs veh, WDR75 / RFU, AHCTF1 / Fold change vs veh, AHCTF1 / RFU, TFRC / Fold change vs veh, TFRC / RFU, ZDHHC17 / Fold change vs veh, ZDHHC17 / RFU, NOM1 / Fold change vs veh, NOM1 / RFU, ARL8B / Fold change vs veh, ARL8B / RFU, ZBTB11 / Fold change vs veh, ZBTB11 / RFU, TAMM41 / Fold change vs veh, TAMM41 / RFU, KIAA1704 /// LOC100996395 / Fold change vs veh, KIAA1704 /// LOC100996395 / RFU, ING1 / Fold change vs veh, ING1 / RFU, TRMT61B / Fold change vs veh, TRMT61B / RFU, FUBP3 / Fold change vs veh, FUBP3 / RFU, TP53 / Fold change vs veh, TP53 / RFU, TNKS2 / Fold change vs veh, TNKS2 / RFU, ZFP14 / Fold change vs veh, ZFP14 / RFU, ACTR2 / Fold change vs veh, ACTR2 / RFU, PPP3R1 / Fold change vs veh, PPP3R1 / RFU, PIK3R1 / Fold change vs veh, PIK3R1 / RFU, HNRNPA1 / Fold change vs veh, HNRNPA1 / RFU, RNF170 / Fold change vs veh, RNF170 / RFU, ZNF28 / Fold change vs veh, ZNF28 / RFU, RNGTT / Fold change vs veh, RNGTT / RFU, OGT / Fold change vs veh, OGT / RFU, BRD1 / Fold change vs veh, BRD1 / RFU, MARS / Fold change vs veh, MARS / RFU, ZNF655 / Fold change vs veh, ZNF655 / RFU, FAHD1 / Fold change vs veh, FAHD1 / RFU, BDP1 / Fold change vs veh, BDP1 / RFU, LRRCC1 / Fold change vs veh, LRRCC1 / RFU, ARID1A / Fold change vs veh, ARID1A / RFU, ZNF146 / Fold change vs veh, ZNF146 / RFU, ZNF330 / Fold change vs veh, ZNF330 / RFU, GPN3 / Fold change vs veh, GPN3 / RFU, C9orf123 / Fold change vs veh, C9orf123 / RFU, N4BP2L2 / Fold change vs veh, N4BP2L2 / RFU, ARFIP1 / Fold change vs veh, ARFIP1 / RFU, FAM179B / Fold change vs veh, FAM179B / RFU, BCL10 / Fold change vs veh, BCL10 / RFU, UHRF1BP1L / Fold change vs veh, UHRF1BP1L / RFU, BET1 / Fold change vs veh, BET1 / RFU, CNOT2 / Fold change vs veh, CNOT2 / RFU, ZNF268 / Fold change vs veh, ZNF268 / Fold change vs veh, ZNF507 / RFU, DGCR2 / Fold change vs veh, DGCR2 / RFU, WDSUB1 / Fold change vs veh, WDSUB1 / Fold change vs veh, HSP90B1 /// MIR3652 / RFU, ADSS / Fold change vs veh, ADSS / RFU, GK / Fold change vs veh, GK / RFU, ZNF148 / Fold change vs veh, ZNF148 / RFU, TAF9 / Fold change vs veh, TAF9 / RFU, SLC1A5 / Fold change vs veh, SLC1A5 / RFU, SLMO2 / Fold change vs veh, SLMO2 / RFU, ABCC4 / Fold change vs veh, ABCC4 / RFU, LOC101060439 /// RAP1B / Fold change vs veh, LOC101060439 /// RAP1B / RFU, RFX7 / Fold change vs veh, RFX7 / RFU, GTPBP10 / Fold change vs veh, GTPBP10 / RFU, CNEP1R1 / Fold change vs veh, CNEP1R1 / RFU, BIVM-ERCC5 /// ERCC5 / Fold change vs veh, BIVM-ERCC5 /// ERCC5 / RFU, ILF3 / Fold change vs veh, ILF3 / RFU 11762660_at / Fold change /veh 11762660_at / RFU VCAN (11757783_s_at) / Fold change /veh VCAN (11757783_s_at) / RFU DDX43 (11728927_at) / Fold change /veh DDX43 (11728927_at) / RFU KRT8 (11758188_x_at) / Fold change /veh KRT8 (11758188_x_at) / RFU NKD1 (11759106_at) / Fold change /veh NKD1 (11759106_at) / RFU SRD5A1 (11742802_a_at) / Fold change /veh SRD5A1 (11742802_a_at) / RFU TPSAB1 /// TPSB2 (11721975_s_at) / Fold change /veh TPSAB1 /// TPSB2 (11721975_s_at) / RFU GSTM3 (11746129_a_at) / Fold change /veh GSTM3 (11746129_a_at) / RFU IL23R (11737362_x_at) / Fold change /veh IL23R (11737362_x_at) / RFU TMEM51 (11727254_a_at) / Fold change /veh TMEM51 (11727254_a_at) / RFU PIWIL2 (11732686_x_at) / Fold change /veh PIWIL2 (11732686_x_at) / RFU ORM1 (11744905_x_at) / Fold change /veh ORM1 (11744905_x_at) / RFU CCDC152 (11743942_at) / Fold change /veh CCDC152 (11743942_at) / RFU ECM1 (11717891_a_at) / Fold change /veh ECM1 (11717891_a_at) / RFU IL23R (11748794_a_at) / Fold change /veh IL23R (11748794_a_at) / RFU TNFAIP8L3 (11732012_x_at) / Fold change /veh TNFAIP8L3 (11732012_x_at) / RFU MBOAT4 (11741988_at) / Fold change /veh MBOAT4 (11741988_at) / RFU 11764193_at / Fold change /veh 11764193_at / RFU TMEM53 (11763286_at) / Fold change /veh TMEM53 (11763286_at) / RFU MAGEB2 (11727129_at) / Fold change /veh MAGEB2 (11727129_at) / RFU TMEM200A (11744735_a_at) / Fold change /veh TMEM200A (11744735_a_at) / RFU CCDC152 (11751479_a_at) / Fold change /veh CCDC152 (11751479_a_at) / RFU FAM211A (11726209_a_at) / Fold change /veh FAM211A (11726209_a_at) / RFU RGS16 (11746705_a_at) / Fold change /veh RGS16 (11746705_a_at) / RFU VCAN (11755009_s_at) / Fold change /veh VCAN (11755009_s_at) / RFU RHOB (11743442_s_at) / Fold change /veh RHOB (11743442_s_at) / RFU RGS16 (11720943_a_at) / Fold change /veh RGS16 (11720943_a_at) / RFU RGS16 (11720944_at) / Fold change /veh RGS16 (11720944_at) / RFU, VPS4B / Fold change vs veh, VPS4B / RFU, CREB1 / Fold change vs veh, CREB1 / RFU, DNAJC13 / Fold change vs veh, DNAJC13 / RFU, GNAQ / Fold change vs veh, GNAQ / RFU, CDK5R1 / Fold change vs veh, CDK5R1 / RFU, ZRANB3 / Fold change vs veh, ZRANB3 / RFU, CUL4A / Fold change vs veh, CUL4A / RFU, CCNY / Fold change vs veh, CCNY / RFU, UFL1 / Fold change vs veh, UFL1 / RFU, COG3 / Fold change vs veh, COG3 / RFU, DIAPH2 / Fold change vs veh, DIAPH2 / RFU, SKA2 / Fold change vs veh, SKA2 / RFU, AFF3 / Fold change vs veh, AFF3 / RFU, LMF1 / Fold change vs veh, LMF1 / RFU, IPO11 / Fold change vs veh, IPO11 / RFU, DFFB / Fold change vs veh, DFFB / RFU, FOXP1 / Fold change vs veh, FOXP1 / RFU, CARD8 / Fold change vs veh, CARD8 / RFU, STRN3 / Fold change vs veh, STRN3 / RFU, ADK / Fold change vs veh, ADK / RFU, RASSF2 / Fold change vs veh, RASSF2 / RFU, WIPF1 / Fold change vs veh, WIPF1 / RFU, LARP1B / Fold change vs veh, LARP1B / RFU, RASA1 / Fold change vs veh, RASA1 / RFU, RB1 / Fold change vs veh, RB1 / RFU, PPFIA1 / Fold change vs veh, PPFIA1 / RFU, MAT2A / Fold change vs veh, MAT2A / RFU, CCT5 / Fold change vs veh, CCT5 / RFU, WDR92 / Fold change vs veh, WDR92 / RFU, CUX1 / Fold change vs veh, CUX1 / RFU, TTC7A / Fold change vs veh, TTC7A / RFU, TMEM135 / Fold change vs veh, TMEM135 / RFU, DEPTOR / Fold change vs veh, DEPTOR / RFU, CPM / Fold change vs veh, CPM / RFU, DNAJB6 / Fold change vs veh, DNAJB6 / RFU, CACNA2D3 / Fold change vs veh, CACNA2D3 / RFU, DTX4 / Fold change vs veh, DTX4 / RFU, TFCP2 / Fold change vs veh, TFCP2 / RFU, GMCL1 /// GMCL1P1 / Fold change vs veh, GMCL1 /// GMCL1P1 / RFU, AEBP2 / Fold change vs veh, AEBP2 / RFU, SNHG1 /// SNORD22 /// SNORD25 /// SNORD26 /// SNORD27 /// SNORD28 /// SNORD29 /// SNORD31 / Fold change vs veh, SNHG1 /// SNORD22 /// SNORD25 /// SNORD26 /// SNORD27 /// SNORD28 /// SNORD29 /// SNORD31 / Fold change (Aza/veh), C12orf56 (ProbeSet 11735607_a_at) / Fold change (ACY-1035/veh), C12orf56 (ProbeSet 11735607_a_at) / Fold change (Aza/veh), FGFR1OP (ProbeSet 11751329_s_at) / Fold change (ACY-1035/veh), FGFR1OP (ProbeSet 11751329_s_at) / Fold change (Aza/veh), VPS36 (ProbeSet 11739960_a_at) / Fold change (ACY-1035/veh), VPS36 (ProbeSet 11739960_a_at) / RFU SYPL1 (11715823_x_at) / Fold change /veh SYPL1 (11715823_x_at) / RFU IGFBP7 (11715501_s_at) / Fold change /veh IGFBP7 (11715501_s_at) / RFU REEP3 (11722064_at) / Fold change /veh REEP3 (11722064_at) / RFU IGLL1 (11728026_x_at) / Fold change /veh IGLL1 (11728026_x_at): dose or concentration left out as unconfirmed. The note with it: ProbeSet 11757268_x_at; LIST B.

The results in this text go back to article PMC5218480 (PLoS ONE, 2017).

Consider `Nc1ncn([C@@H]2O[C@H](CO)[C@@H](O)[C@H]2O)c(=O)n1` [azacitidine], for which the “Fold change vs veh, HNRNPA1” value is given as 0.91.
